Measurements reported in patent US7122526B2, “Indolocarbazole anticancer agents and methods of using same” (Nanosphere, Inc., priority 2000, dated 2006).

What was measured:
OVCAR-3 Ovarian = assay: In vitro cytotoxicity assay (MTS), OVCAR-3; assay type: cell-based; details: OVCAR-3 human ovarian tumor cell line, MTS assay 3–5 days; read-out: Growth-Inhibitory Activity IC50 OVCAR-3 Ovarian
Description: (§1) b.) In vitro Cytotoxicity Assay. 96-Well tissue culture cluster plates were seeded with 100 μL of cell suspension (5×10^3 cells/mL), and incubated overnight for cell anchorage and acclimation. Cells were propagated under sterile conditions in RPMI 1640 or DMEM with 10% fetal bovine serum, 2 mM L-glutamine, and sodium bicarbonate (complete medium), and incubated at 37° C. The test compounds were prepared in DMSO and then diluted in complete media. A range of eight concentrations was used for each test drug to establish cytotoxicity, with eight replicates for each concentration. All dosing was conducted using a Biomek 2000 robotic liquid handler. The plates were incubated at 37° C. with 5% CO2 and 95% relative humidity. The data were analyzed for cytotoxicity using the MTS assay 3–5 days (depending upon the growth rate of the cell lines) after commencement of treatment.
(§2) c.) MTS Assay. A solution of 40 μL of MTS/PES solution (purchased from Promega Corporation) was added to each well, and incubated for one to four hours. The absorbance of formazan in each monolayer was measured at 490 nm on a Coulter microplate reader. The data were processed in a spreadsheet program to provide a dose-response curve, allowing determination of the IC50.

HT-29 Colon = assay: In vitro cytotoxicity assay (MTS), HT-29; assay type: cell-based; details: HT-29 human colon tumor cell line, MTS assay 3–5 days; read-out: Growth-Inhibitory Activity IC50 HT-29 Colon
Description: as §1, §2

DU-145 Prostate = assay: In vitro cytotoxicity assay (MTS), DU-145; assay type: cell-based; details: DU-145 human prostate tumor cell line, MTS assay 3–5 days; read-out: Growth-Inhibitory Activity IC50 DU-145 Prostate
Description: as §1, §2

Human Topoisomerase I = target: T1, Human Topoisomerase I (Homo sapiens, UniProt P11387); assay: Topoisomerase I assay (pHOT1 supercoiled DNA, agarose gel); assay type: biochemical; details: supercoiled DNA band density, 37° C., 30 minutes; read-out: Poisoning of Human Topoisomerase I IC50
T1 sequence (P11387 1-765): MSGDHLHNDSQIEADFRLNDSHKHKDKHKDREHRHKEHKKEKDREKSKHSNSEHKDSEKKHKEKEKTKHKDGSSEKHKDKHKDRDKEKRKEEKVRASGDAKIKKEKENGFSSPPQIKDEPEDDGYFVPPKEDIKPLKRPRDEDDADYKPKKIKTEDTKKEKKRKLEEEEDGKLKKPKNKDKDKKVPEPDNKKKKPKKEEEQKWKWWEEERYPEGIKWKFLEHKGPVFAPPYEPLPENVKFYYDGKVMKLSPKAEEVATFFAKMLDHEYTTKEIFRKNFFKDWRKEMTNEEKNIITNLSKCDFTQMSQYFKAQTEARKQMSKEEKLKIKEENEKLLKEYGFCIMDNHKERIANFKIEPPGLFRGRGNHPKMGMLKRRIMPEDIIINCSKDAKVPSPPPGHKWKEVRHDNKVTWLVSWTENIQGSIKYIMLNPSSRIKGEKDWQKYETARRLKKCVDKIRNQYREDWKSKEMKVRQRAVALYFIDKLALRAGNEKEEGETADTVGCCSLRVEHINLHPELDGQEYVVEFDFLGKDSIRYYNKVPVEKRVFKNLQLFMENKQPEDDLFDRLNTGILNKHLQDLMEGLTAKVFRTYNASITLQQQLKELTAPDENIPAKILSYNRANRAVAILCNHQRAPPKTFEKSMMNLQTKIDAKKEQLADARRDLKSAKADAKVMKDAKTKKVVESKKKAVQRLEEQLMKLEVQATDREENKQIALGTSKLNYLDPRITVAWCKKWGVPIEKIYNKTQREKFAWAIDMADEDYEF
Description: a.) Topoisomerase I assay. Reaction buffer (10.3 μL H2O, 2.0 μL 10×buffer, 1.5 μL […] MgCl2, and 3.2 μL 500 mM KCl) was prepared and kept on ice. 10×Buffer was prepared by mixing 2 mL 2M Tris pH 7.5, 15.3 μL 10% DTT, 100 μL 0.5 M EDTA, 75 μL 20 mg/mL BSA, and […]. Test poisons were prepared in DMSO at such concentrations that the final incubation mixture was 5% DMSO. DNA mix was prepared by dissolving […] of pHOT1 DNA solution (0.25 μg/μL) with 715 μL reaction buffer. Topo I mix was prepared by mixing 14 μL of Topo I solution (2 units/μL) with 266 μL of reaction buffer. Proteinase K solution was prepared fresh as 10 mg/mL in 1% SDS. Gel loading buffer was prepared by dissolving 1 mg bromophenol blue in 100 μL H2O, then adding 900 μL 50% glycerol.
The assay was conducted as follows. DNA mix (14 μL) was added to sample tubes containing 1 μL of test poison solution and stored on ice. Next, 5 μL of Topo I mix was added, the solution was mixed with the pipettor, then incubated with gentle rocking in a 37° C. water bath for 30 minutes. The reactions were stopped via addition of 2 μL of proteinase K solution, and incubation was continued for another 30 minutes, then placed on ice. 2.2 μL of 5 M NaCl and 75 μL of EtOH were added to the tubes, the tubes were vortexed briefly, then placed on dry ice for 1 hour. The DNA was pelleted by centrifugation at 16,000×g for 10 minutes at 4° C. EtOH was removed from each tube using a gel loading pipette tip, and the DNA pellet was resuspended in 18 μL of reaction buffer and 2 μL of gel loading buffer. The samples were vortexed briefly, then spun for 15 seconds in a micro-centrifuge to force all the liquid to the bottom of the tubes. The samples were loaded onto a 1% agarose gel made with 1×TBE containing 2 μg/mL chloroquine. The gels were run at 35 V for 15 hours in 1×TBE. Gels were stained with 0.5 μg/mL ethidium bromide in 1×TBE for 1 hour, then destained for 30 minutes in H2O. Gels were photographed with a digital camera, and the digitized images analyzed using NIH software. IC50 values were determined by comparing supercoiled DNA band density (negative controls containing 5 μL reaction buffer in place of Topo I mix) with the supercoiled DNA bands remaining in the test samples.

| SMILES | IC50 (OVCAR-3 Ovarian) [nM] | IC50 (HT-29 Colon) [µM] | IC50 (DU-145 Prostate) [nM] | IC50 (Human Topoisomerase I) [µM] |
| --- | --- | --- | --- | --- |
| O=C1NC(=O)c2c1c1c3cc(O)ccc3[nH]c1c1c2c2cc(O)ccc2n1[C@@H]1O[C@H](CO)[C@@H](O)[C@H](O)[C@H]1O [ALS-007, 3,9-dihydroxy-12-(β-D-glucopyranosyl)-6,7,12,13-tetrahydroindolo[2,3-a]pyrrolo[3,4-c]carbazole-5,7-dione, reference compound] | < 10 | 9.96 | 338 | 20.9 |
| O=C1NC(=O)c2c1c1c3cc(O)ccc3[nH]c1c1c2c2cc3c(cc2n1[C@@H]1O[C@H](CO)[C@@H](O)[C@H](O)[C@H]1O)OCCO3 [IIa, 2,3-ethylenedioxy-9-hydroxy-13-(β-D-glucopyranosyl)-6,7,12,13-tetrahydroindolo[2,3-a]pyrrolo[3,4-c]carbazole-5,7-dione] |  |  |  | > 400 |
| O=C1NC(=O)c2c1c1c3cc(O)ccc3[nH]c1c1c2c2cc3c(cc2n1[C@@H]1O[C@H](CO)[C@@H](O)[C@H](O)[C@H]1O)OCO3 [IIb, 2,3-methylenedioxy-9-hydroxy-13-(β-D-glucopyranosyl)-6,7,12,13-tetrahydroindolo[2,3-a]pyrrolo[3,4-c]carbazole-5,7-dione] |  |  |  | > 400 |
| O=C1NC(=O)c2c1c1c3cc4c(cc3[nH]c1c1c2c2cc(O)ccc2n1[C@@H]1O[C@H](CO)[C@@H](O)[C@H](O)[C@H]1O)OCCO4 [Ia, 2,3-ethylenedioxy-9-hydroxy-12-(β-D-glucopyranosyl)-6,7,12,13-tetrahydroindolo[2,3-a]pyrrolo[3,4-c]carbazole-5,7-dione] | < 10 | > 10 | 845 | 5.4 |
| O=C1NC(=O)c2c1c1c3cc4c(cc3[nH]c1c1c2c2cc(O)ccc2n1[C@@H]1O[C@H](CO)[C@@H](O)[C@H](O)[C@H]1O)OCO4 [Ib, 2,3-methylenedioxy-9-hydroxy-12-(β-D-glucopyranosyl)-6,7,12,13-tetrahydroindolo[2,3-a]pyrrolo[3,4-c]carbazole-5,7-dione] | < 10 | > 10 | 460 | 3.6 |
| CC1(C)Oc2cc3[nH]c4c(c5c(c6c7cc(O)ccc7n(C7OC(CO)C(O)C(O)C7O)c46)C(=O)NC5=O)c3cc2O1 [Ic, 2,3-isopropylenedioxy-9-hydroxy-12-(β-D-glucopyranosyl)-6,7,12,13-tetrahydroindolo[2,3-a]pyrrolo[3,4-c]carbazole-5,7-dione] | 36 | > 10 | 2360 | 8.1 |
| CC[C@@]1(O)C(=O)OCc2c1cc1n(c2=O)Cc2cc3c(CN(C)C)c(O)ccc3nc2-1 [Topotecan, reference compound] | < 3 | 0.533 | 30 |  |
| O=C1c2c(c3c4cc(O)ccc4n(C4OC(CO)C(O)C(O)C4O)c3c3[nH]c4cc5c(cc4c23)OCCO5)C(=O)N1CO [compound 9, 2,3-ethylenedioxy-6-hydroxymethyl-9-hydroxy-12-(β-D-glucopyranosyl)-6,7,12,13-tetrahydroindolo[2,3-a]pyrrolo[3,4c]carbazole-5,7-dione] | < 10 | > 10 | 718 | 3.9 |
| O=C1c2c(c3c4cc(O)ccc4n([C@@H]4O[C@H](CO)[C@@H](O)[C@H](O)[C@H]4O)c3c3[nH]c4cc5c(cc4c23)OCO5)C(=O)N1CO [compound 16, 2,3-methylenedioxy-6-hydroxymethyl-9-hydroxy-12-(β-D-glucopyranosyl)-6,7,12,13-tetrahydroindolo[2,3-a]pyrrolo[3,4-c]carbazole-5,7-dione] | < 10 | > 10 | 549 | 3.6 |
| CC1(C)Oc2cc3[nH]c4c(c5c(c6c7cc(O)ccc7n(C7OC(CO)C(O)C(O)C7O)c46)C(=O)N(CO)C5=O)c3cc2O1 [compound 23, 2,3-isopropylenedioxy-6-hydroxymethyl-9-hydroxy-12-(β-D-glucopyranosyl)-6,7,12,13-tetrahydroindolo[2,3-a]pyrrolo[3,4-c]carbazole-5,7-dione] | 43 | > 10 | 3520 | 130 |
